Measured values published in patent publication US12440496B2, “Natriuretic peptide receptor a agonists useful for the treatment of cardiometabolic diseases, kidney disease and diabetes” (Merck Sharp & Dohme LLC, priority 2019, dated 2025).
Structures can show the parent of a compound that is named as a salt.

Molecular target: T1, hNPRA (Homo sapiens, UniProt P16066)
T1 construct: expressed in transfected cells
T1 sequence (P16066 33-1061): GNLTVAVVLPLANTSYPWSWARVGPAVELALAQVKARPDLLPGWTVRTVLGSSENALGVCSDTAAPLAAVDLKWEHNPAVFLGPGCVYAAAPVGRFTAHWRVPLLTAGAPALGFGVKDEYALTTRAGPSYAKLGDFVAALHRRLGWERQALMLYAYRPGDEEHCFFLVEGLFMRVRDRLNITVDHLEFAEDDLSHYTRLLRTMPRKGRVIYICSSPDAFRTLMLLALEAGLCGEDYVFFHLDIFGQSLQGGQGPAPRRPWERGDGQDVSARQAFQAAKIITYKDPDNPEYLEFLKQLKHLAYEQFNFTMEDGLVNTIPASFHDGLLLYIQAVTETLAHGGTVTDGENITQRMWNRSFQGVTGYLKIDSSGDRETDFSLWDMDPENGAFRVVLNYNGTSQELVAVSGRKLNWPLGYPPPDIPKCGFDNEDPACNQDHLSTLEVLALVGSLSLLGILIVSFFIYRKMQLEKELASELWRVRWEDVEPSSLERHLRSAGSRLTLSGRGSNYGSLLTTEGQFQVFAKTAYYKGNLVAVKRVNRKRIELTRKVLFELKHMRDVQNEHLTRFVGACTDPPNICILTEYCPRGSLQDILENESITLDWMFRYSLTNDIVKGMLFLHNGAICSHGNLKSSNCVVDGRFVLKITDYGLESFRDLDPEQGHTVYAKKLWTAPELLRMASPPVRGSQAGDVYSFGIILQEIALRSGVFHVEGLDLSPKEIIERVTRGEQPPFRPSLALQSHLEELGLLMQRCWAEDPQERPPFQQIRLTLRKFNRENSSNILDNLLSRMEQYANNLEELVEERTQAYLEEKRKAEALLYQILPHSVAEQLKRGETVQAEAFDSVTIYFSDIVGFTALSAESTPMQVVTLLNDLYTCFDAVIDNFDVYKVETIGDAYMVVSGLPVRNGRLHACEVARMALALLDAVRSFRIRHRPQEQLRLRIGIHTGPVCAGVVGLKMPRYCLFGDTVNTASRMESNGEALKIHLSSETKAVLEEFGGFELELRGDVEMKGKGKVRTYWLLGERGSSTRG
Assay: NPRA Functional Cell Assay (cGMP HTRF, NPRA HEK JumpIn stable cells)
Assay type: cell-based
Details: cGMP production, 1 hour at 37° C., 10-point dose response
Method in brief: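 cGMP HTRF read-out after 1 hour compound treatment at 37° C. of human NPRA-expressing HEK JumpIn cells, 1500 cells/well, in buffer with phosphodiesterase inhibitors IBMX and RO20 (100 uM each). Signal converted to [cGMP] by calibration curve; EC50s fitted by 4-parameter logistic; 50 nM h-ANP as positive response.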

EC50	SMILES
1920 nM	CC(C)(C)[C@H]1CCc2nc3sc(C(=O)N[C@H](CCN4CCC(O)CC4)c4ccc(-c5cncs5)cc4)nc3cc2C1 (racemic) [Example 185, rac-(7S)-7-tert-butyl-N-[rac-(1R)-3-(4-hydroxypiperidin-1-ium-1-yl)-1-(4-thiazol-5-ylphenyl)propyl]-5,6,7,8-tetrahydrothiazolo[5,4-b]quinoline-2-carboxamide; 2,2,2-trifluoroacetate]
235 nM	CC(C)(C)[C@H]1CCc2nc3sc(C(=O)N[C@H](CCN4CCCCC4)c4ccc(-c5cnc(O)c(F)c5)cc4)cc3cc2C1 [Example 238, (S)-6-(tert-butyl)-N-((R)-1-(4-(5-fluoro-6-hydroxypyridin-3-yl)phenyl)-3-(piperidin-1-yl)propyl)-5,6,7,8-tetrahydrothieno[2,3-b]quinoline-2-carboxamide]
518 nM	CC(C)(C)[C@H]1CCc2nc3sc(C(=O)N[C@H](CCN4CCCCC4)c4ccc(-c5cnc(=O)[nH]c5)cc4)cc3cc2C1 (racemic) [Example 2, rac-(6S)-6-tert-butyl-N-[rac-(1R)-1-[4-(2-oxo-1H-pyrimidin-5-yl)phenyl]-3-(1-piperidyl)propyl]-5,6,7,8-tetrahydrothieno[2,3-b]quinoline-2-carboxamide]
766 nM	CC(C)(C)[C@H]1CCc2nc3sc(C(=O)N[C@H](CCN4CCC(O)CC4)c4cccc(C(=O)NC5CNC(=O)C5)c4)nc3cc2C1 (mixture of isomers) [Example 155, rac-(7S)-7-tert-butyl-N-[rac-(1R)-3-(4-hydroxy-1-piperidyl)-1-[3-[(5-oxopyrrolidin-3-yl)carbamoyl]phenyl]propyl]-5,6,7,8-tetrahydrothiazolo[5,4-b]quinoline-2-carboxamide]
222 nM	CC(C)(C)[C@H]1CCc2nc3sc(C(=O)N[C@H](CCN4CCC(O)(CN)CC4)c4ccc(-c5cnc(O)c(F)c5)cc4)nc3cc2C1 (racemic) [Example 199, [4-hydroxy-1-[rac-(3R)-3-[4-(5-fluoro-6-hydroxy-3-pyridyl)phenyl]-3-[[rac-(7S)-7-tert-butyl-5,6,7,8-tetrahydrothiazolo[5,4-b]quinoline-2-carbonyl]amino]propyl]-4-piperidyl]methylammonium; formate]
220 nM	CC(C)(C)[C@H]1CCc2nc3sc(C(=O)N[C@H](CCN4CCC(N)CC4)c4ccc(-c5cnc(O)c(F)c5)cc4)nc3cc2C1 (racemic) [Example 198, [1-[rac-(3R)-3-[4-(5-fluoro-6-hydroxy-3-pyridyl)phenyl]-3-[[rac-(7S)-7-tert-butyl-5,6,7,8-tetrahydrothiazolo[5,4-b]quinoline-2-carbonyl]amino]propyl]-4-piperidyl]ammonium; formate]
773 nM	CC(C)(C)[C@H]1CCc2nc3sc(C(=O)N[C@H](CCN4CCC(O)CC4)c4ccc(-c5ccnc(N)c5)cc4)nc3cc2C1 (racemic) [Example 168, rac-(7S)-7-tert-butyl-N-[rac-(1R)-1-[4-(2-amino-4-pyridyl)phenyl]-3-(4-hydroxy-1-piperidyl)propyl]-5,6,7,8-tetrahydrothiazolo[5,4-b]quinoline-2-carboxamide]
514 nM	CCN(CC)CC[C@@H](NC(=O)c1nc2cc3c(nc2s1)CC[C@H](C(C)(C)C)C3)c1ccc(-c2cnc(O)c(F)c2)cc1 (racemic) [Example 202, diethyl-[rac-(3R)-3-[4-(5-fluoro-6-hydroxy-3-pyridyl)phenyl]-3-[[rac-(7S)-7-tert-butyl-5,6,7,8-tetrahydrothiazolo[5,4-b]quinoline-2-carbonyl]amino]propyl]ammonium; formate]
186 nM	CN1CC(NC(=O)c2cccc([C@@H](CCN3CCC(CO)CC3)NC(=O)c3nc4cc5c(nc4s3)CC[C@H](C(C)(C)C)C5)c2)C1 (racemic) [Example 104, rac-(7S)-7-tert-butyl-N-[rac-(1R)-3-[4-(hydroxymethyl)-1-piperidyl]-1-[3-[(1-methylazetidin-1-ium-3-yl)carbamoyl]phenyl]propyl]-5,6,7,8-tetrahydrothiazolo[5,4-b] quinoline-2-carboxamide; 2,2,2-trifluoroacetate]
764 nM	COCCN(C)CC[C@@H](NC(=O)c1nc2cc3c(nc2s1)CC[C@H](C(C)(C)C)C3)c1ccc(NS(=O)(=O)N(C)C)nc1 (racemic) [Example 210, 2-methoxyethyl-methyl-[rac-(3R)-3-[6-(dimethylsulfamoylamino)-3-pyridyl]-3-[rac-(7S)-7-tert-butyl-5,6,7,8-tetrahydrothiazolo[5,4-b]quinoline-2-carbonyl]amino]propyl]ammonium; 2,2,2-trifluoroacetate]
557 nM	CC(C)(C)[C@H]1CCc2nc3sc(C(=O)N[C@H](CCNC4CCOCC4)c4ccc(-c5ccc(=O)[nH]c5)cc4)cc3cc2C1 (racemic) [Example 36, [rac-(3R)-3-[4-(6-oxo-1H-pyridin-3-yl)phenyl]-3-[rac-(6S)-6-tert-butyl-5,6,7,8-tetrahydrothieno[2,3-b]quinoline-2-carbonyl]amino]propyl]-tetrahydropyran-4-yl-ammonium;formate]
1330 nM	COCCN1CCN(CC[C@@H](NC(=O)c2cc3cc4c(nc3s2)CC[C@H](C(C)(C)C)C4)c2ccc(-c3ccc(=O)[nH]c3)cc2)CC1 (racemic) [Example 66, rac-(6S)-6-tert-butyl-N-[rac-(1R)-3-[4-(2-methoxyethyl)piperazin-1-yl]-1-[4-(6-oxo-1H-pyridin-3-yl)phenyl]propyl]-5,6,7,8-tetrahydrothieno[2,3-b]quinoline-2-carboxamide]
1990 nM	CC(C)(C)[C@H]1CCc2nc3sc(C(=O)N[C@H](CCN4C[C@H](O)C[C@H]4CO)c4ccc(-c5ccc(=O)[nH]c5)cc4)cc3cc2C1 (racemic) [Example 71, rac-(6S)-6-tert-butyl-N-[rac-(1R)-1-[4-(6-oxo-1H-pyridin-3-yl)phenyl]-3-[rac-(2S,4R)-4-hydroxy-2-(hydroxymethyl)pyrrolidin-1-ium-1-yl]propyl]-5,6,7,8-tetrahydrothieno[2,3-b]quinoline-2-carboxamide;formate]
2030 nM	O=C(N[C@H](CCN1CCC(O)CC1)c1ccc(-c2cn[nH]c2)cc1)c1nc2cc3c(nc2s1)CC[C@H](C1(C(F)(F)F)CC1)C3 [Example 268, (S)-N-((R)-1-(4-(1H-pyrazol-4-yl)phenyl)-3-(4-hydroxypiperidin-1-yl)propyl)-7-(1-(trifluoromethyl)cyclopropyl)-5,6,7,8-tetrahydrothiazolo[5,4-b]quinoline-2-carboxamide]
656 nM	CC(C)(C)[C@H]1CCc2nc3sc(C(=O)N[C@H](CCN4CCC(O)C4)c4ccc(-c5ccc(=O)[nH]c5)cc4)cc3cc2C1 (mixture of isomers) [Example 41, rac-(6S)-6-tert-butyl-N-[rac-(1R)-3-(3-hydroxypyrrolidin-1-ium-1-yl)-1-[4-(6-oxo-1H-pyridin-3-yl)phenyl]propyl]-5,6,7,8-tetrahydrothieno[2,3-b]quinoline-2-carboxamide;formate]
1020 nM	CC(C)(C)[C@H]1CCc2nc3sc(C(=O)N[C@H](CCN4CCC(O)CC4)c4ccc(N5CCOC5=O)cc4)nc3cc2C1 (racemic) [Example 85]
126 nM	CC(C)(C)[C@H]1CCc2nc3sc(C(=O)N[C@H](CCN4CCC(O)CC4)c4ccc(-c5ccc(=O)[nH]c5)nc4)nc3cc2C1 (racemic) [Example 195, rac-(7S)-7-tert-butyl-N-[rac-(1R)-3-(4-hydroxy-1-piperidyl)-1-[6-(6-oxo-1H-pyridin-3-yl)-3-pyridyl]propyl]-5,6,7,8-tetrahydrothiazolo[5,4-b]quinoline-2-carboxamide]
